Assays:
guinea pig in cycle = assay: Antiluteolysis test/ovulation inhibition test in the guinea pig in cycle; format: in vivo; settings: for Prostaglandin / PGFM levels in the blood (in words): guinea pig
Procedure: Antiluteolysis test/ovulation inhibition test in the guinea pig in cycle: This test is based on the fact that progesterone at the end of the cycle stimulates uterine prostaglandin secretion. In the guinea pig, the inhibition of this function leads to a persistence of the corpora lutea (antiluteolysis). […] This test thus allows the therapy-relevant typing of progesterone antagonists as ? pure” or ? agonistic” substances. Guinea pigs are treated with the test substance on day 10 to day 17 of the cycle. The progesterone concentrations in the serum are determined on day 10 before substance treatment and on the following days until autopsy ([…]., Beier, […]., Crundel, M. et al. in Current Concepts in Fertility Regulation and Reproduction, (eds). Puri, C. P. and Van Look, P. F. H. (1994) 303-328).

glucocorticoid receptor = molecular target: T1, glucocorticoid receptor (Rattus norvegicus, UniProt P06536); assay: Receptor binding affinity, glucocorticoid receptor (competitive binding, thymus cytosol); settings: Dexamethasone = 100%; thymus cytosol of adrenalectomized rat; tracer 3H-dexamethasone
T1 construct: receptors in the cytosol of animal target organs; from tissue; host or cells: thymus cytosol of the adrenalectomized rat
T1 sequence (P06536 1-795): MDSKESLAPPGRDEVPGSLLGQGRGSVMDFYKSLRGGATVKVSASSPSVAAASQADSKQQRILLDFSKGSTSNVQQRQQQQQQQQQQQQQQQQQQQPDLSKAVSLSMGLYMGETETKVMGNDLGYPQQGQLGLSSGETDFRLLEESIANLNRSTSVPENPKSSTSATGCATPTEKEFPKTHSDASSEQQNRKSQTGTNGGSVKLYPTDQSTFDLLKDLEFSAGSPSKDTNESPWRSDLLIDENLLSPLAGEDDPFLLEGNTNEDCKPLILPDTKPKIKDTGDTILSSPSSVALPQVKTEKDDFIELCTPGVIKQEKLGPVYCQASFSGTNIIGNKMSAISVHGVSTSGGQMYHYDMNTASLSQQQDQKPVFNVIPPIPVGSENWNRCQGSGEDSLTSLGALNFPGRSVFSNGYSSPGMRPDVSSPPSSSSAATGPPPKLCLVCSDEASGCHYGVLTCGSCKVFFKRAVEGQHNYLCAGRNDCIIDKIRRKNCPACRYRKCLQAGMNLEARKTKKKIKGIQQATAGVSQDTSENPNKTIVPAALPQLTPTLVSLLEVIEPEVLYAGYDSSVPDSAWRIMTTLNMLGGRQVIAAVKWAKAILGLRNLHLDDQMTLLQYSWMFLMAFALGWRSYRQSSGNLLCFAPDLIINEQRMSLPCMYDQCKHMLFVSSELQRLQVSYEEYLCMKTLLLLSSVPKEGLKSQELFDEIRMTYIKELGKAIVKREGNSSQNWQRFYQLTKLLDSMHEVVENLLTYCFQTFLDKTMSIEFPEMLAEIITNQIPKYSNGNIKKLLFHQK
Procedure: (§1) Measurement of the receptor binding affinity
(§2) The receptor binding affinity was determined by competitive binding of a specifically binding ^3H-labeled hormone (tracer) and the compound to be tested to receptors in the cytosol of animal target organs. Receptor saturation and reaction equilibrium were aimed at here. The following incubation conditions were chosen:
Glucocorticoid receptor: Thymus cytosol of the adrenalectomized rat. Thymi stored at −30° C.
Tracer: ^3H-dexamethasone, 20 nM.
Reference substance: dexamethasone.
(§3) After an incubation of receptor fraction, tracer and competitor for 18 h at 0-4° C., the bound and free steroid were separated by mixing in active carbon/dextran (1%/0.1%), centrifuging off and measuring the receptor-bound ^3H activity in the supernatant.

[1] = system: early pregnancy in the rat; assay: Inhibition of early pregnancy in the rat (early abortive action); format: in vivo; settings: s.c., day 5-7 of pregnancy
Procedure: Inhibition of early pregnancy in the rat Female rats weighing 180-200 g were mated in the proestrus stage. On detection of sperm in the vaginal region on the next day, this is set as day 1 (d=1) of the pregnancy. The rats are treated with test substance or vehicle using 0.2 ml of benzoyl benzoate/castor oil (1+4 v/v) subcutaneously from day 5 to day 7 (d5-d7); autopsy is carried oust painlessly on day d9. The uterus horns was [sic] dissected and examined for intact or damaged nidation sites.

progesterone receptor = molecular target: T2, progesterone receptor (Oryctolagus cuniculus, UniProt P06186); assay: Receptor binding affinity, progesterone receptor (competitive binding, uterus cytosol); settings: Progesterone = 100%; uterus cytosol of estradiol-primed rabbit; tracer 3H-ORG 2058
T2 construct: receptors in the cytosol of animal target organs; from tissue; host or cells: uterus cytosol of the estradiol-primed rabbit
T2 sequence (P06186 1-930): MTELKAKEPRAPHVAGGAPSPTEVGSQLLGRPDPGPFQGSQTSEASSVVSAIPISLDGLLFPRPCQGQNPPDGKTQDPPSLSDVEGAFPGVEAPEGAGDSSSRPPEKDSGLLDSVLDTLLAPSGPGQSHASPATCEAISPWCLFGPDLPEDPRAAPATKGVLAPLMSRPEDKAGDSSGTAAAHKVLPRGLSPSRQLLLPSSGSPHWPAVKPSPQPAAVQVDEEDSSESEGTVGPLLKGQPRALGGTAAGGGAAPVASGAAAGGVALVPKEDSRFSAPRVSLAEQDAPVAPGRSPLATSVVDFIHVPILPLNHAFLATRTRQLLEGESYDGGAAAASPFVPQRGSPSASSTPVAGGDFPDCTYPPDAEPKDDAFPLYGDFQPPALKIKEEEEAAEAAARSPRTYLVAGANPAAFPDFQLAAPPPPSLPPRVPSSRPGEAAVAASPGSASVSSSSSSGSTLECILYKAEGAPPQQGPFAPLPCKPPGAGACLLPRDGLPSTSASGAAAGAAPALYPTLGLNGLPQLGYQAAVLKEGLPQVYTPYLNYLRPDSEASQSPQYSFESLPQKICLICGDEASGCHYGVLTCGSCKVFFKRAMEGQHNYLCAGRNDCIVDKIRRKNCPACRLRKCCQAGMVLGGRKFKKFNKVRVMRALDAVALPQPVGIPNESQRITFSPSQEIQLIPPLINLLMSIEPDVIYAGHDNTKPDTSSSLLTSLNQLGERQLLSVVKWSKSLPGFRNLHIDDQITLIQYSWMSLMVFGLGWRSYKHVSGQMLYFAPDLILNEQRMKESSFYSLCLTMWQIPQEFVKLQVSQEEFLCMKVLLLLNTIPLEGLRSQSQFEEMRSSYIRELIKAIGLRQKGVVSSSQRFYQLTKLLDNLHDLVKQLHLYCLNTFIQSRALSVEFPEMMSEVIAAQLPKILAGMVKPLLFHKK
Procedure: as §1, §2
Progesterone receptor Uterus cytosol of the estradiol-primed rabbit, stored at −30° C.
Buffer for homogenization and incubation: TED buffer 20 mM tris/HCl, pH [sic]=7.4; 1 mM ethylenediamine tetracetate, 2 mM dithiothreitol) containing 250 mM sucrose.
Reference substance: progesterone.
as §3

CC(=O)[C@H]1CC[C@H]2[C@@H]3CCC4=CC(=O)CC[C@]4(C)[C@H]3CC[C@]12C [progesterone]
Prostaglandin / PGFM levels in the blood (in words) (guinea pig in cycle): raised prostaglandin F metabolite levels

CC#C[C@]1(O)CC[C@H]2[C@@H]3CCC4=CC(=O)CCC4=C3[C@@H](c3ccc(N(C)C)cc3)C[C@@]21C [RU 486, mifepristone, reference compound]
Inhibition of luteolysis / antiluteolytic activity (in words) (guinea pig in cycle; guinea pig in cycle): slightly antiluteolytically active | Relative molar binding affinity RBA (%) to the glucocorticoid receptor (glucocorticoid receptor): 685% | Complete inhibition of pregnancy % ([1]; 0.3 mg/(animal × day)): 0% | Complete inhibition of pregnancy % ([1]; 1 mg/(animal × day)): 20% | Complete inhibition of pregnancy % ([1]; 3 mg/(animal × day)): 100%

CN(C)c1ccc([C@H]2C[C@]3(C)[C@@H](CC[C@]3(O)CCCO)[C@@H]3CCC4=CC(=O)CCC4=C32)cc1 [ZK 98299, onapristone, reference compound]
Prostaglandin / PGFM levels in the blood (in words) (guinea pig in cycle): very low prostaglandin levels in the blood | Effect on the vaginal epithelium (in words) (guinea pig in cycle; guinea pig in cycle): induces proliferation and keratinization of the vaginal epithelium | Relative molar binding affinity RBA (%) to the progesterone receptor (progesterone receptor): 22% | Relative molar binding affinity RBA (%) to the glucocorticoid receptor (glucocorticoid receptor): 39%

— US6365582B1, “S-substitute 11β-benzaldoxime-estra-4, 9-diene-carbonic acid thiolesters, method for the production thereof and pharmaceutical preparations containing these compounds” (Jenapharm GmbH & Co. KG, priority 1998, dated 2002)
